Assays:
Format in all cases: physicochemical
[1] = Stability of the crystalline form under accelerated conditions of temperature and humidity; details: solid form; up to 4 weeks
Text: (§1) As previously noted, the N-2 form was selected due to a number of properties including chemical/physical stability, reproducibility and hygroscopicity.

[2] = Stability on exposure to UV/HIL; details: solid form; 4 days
Text: as §1

[3] = Stability of milled API under high humidity and temperature open dish conditions; details: up to 2 weeks, 25° C./60% RH and 40° C./75% RH open
Text: as §1

CCn1c(C(=O)N(C2CC2)C2CC2)cc2c3c(ncn3C)c(Nc3cc(C)n(C)n3)nc21 [Form N-2, N,N-dicyclopropyl-4-(1,5-dimethyl-1H-pyrazol-3-ylamino)-6-ethyl-1-methyl-1,6-dihydroimidazo[4,5-d]pyrrolo[2,3-b]pyridine-7-carboxamide]
stable: stability under accelerated conditions of temperature and humidity [1] | stability on exposure to UV/HIL [2] | stability under high humidity and temperature open dish conditions [3]
